Assay results reported in publication PMC4881598, “Novel Zinc(II) Complexes [Zn(atc-Et)2] and [Zn(atc-Ph)2]: In Vitro and in Vivo Antiproliferative Studies” (International Journal of Molecular Sciences, 2016).
Where two headings read alike, the source gives them in different places.

How the values were obtained:
[1] = test system: MRC-5 cells (healthy lung fibroblast); test: Cytotoxic analysis (IC50) of adherent cell lines, resazurin: MRC-5; format: cell-based; settings: 24 h incubation, read-out: IC50 ± SD, MRC-5
Description: (§1) All adherent cell lines, including healthy lung fibroblast (MRC-5), hepatocellular carcinoma (HepG-2), cervix adenocarcinoma (HeLa), breast adenocarcinoma (MDA-MB-231), prostate carcinoma (DU 145) and suspended chronic myelogenous leukemia (K-562) cells, were cultured in a humidified atmosphere containing 5% CO2 at 37 °C. The cultures were maintained in Dulbecco's Modified Eagle Medium (DMEM) or Roswell Park Memorial Institute (RPMI) 1640 medium (Vitrocell®, Campinas, SP, Brazil) supplemented with 10% fetal bovine serum (FBS), 50 mg/L gentamicin sulfate, and 2 mg/L amphotericin B.
(§2) In these experiments, cells were collected in a solution of trypsin/ethylenediaminetetraacetic acid (EDTA) (Vitrocell®) and centrifuged (252× g for 5 min). The number of cells was counted using a Neubauer chamber (Celeromics, Valencia, Spain) after staining non-viable cells with 0.4% trypan blue solution (Sigma-Aldrich®) via the cell exclusion assay. Then, the cell concentration was adjusted to 7.5 × 10^4 cells/mL in DMEM for tumor cells and MRC-5 cells. Next, a 200 μL suspension was deposited into each well of a 96-well microplate to a cell density of 1.5 × 10^4 cells/well. The cells were incubated at 37 °C in an atmosphere of 5% CO2 for 24 h to allow the cells to attach to the plate. The coordination compounds were solubilized in DMSO to an initial concentration of 10,000 µg/mL. Test solutions of the complexes were prepared to obtain concentrations from 500 to 1.95 μg/mL. The diluted solutions were added to the cells after changing the medium to remove any non-adherent cells, and the cultures were incubated for an additional 24 h. The cytotoxicity of the complexes was determined after incubating the cells in 30 μL of resazurin for approximately 2 h. The measurement was performed using a Synergy H1 microplate reader (BioTek®, Winooski, VT, USA) with excitation and emission filters at wavelengths of 530 and 590 nm, respectively. The assays were performed in three independent experiments.

[2] = test system: HepG2 cells (hepatocellular carcinoma); test: Cytotoxic analysis (IC50) of adherent cell lines, resazurin: HepG2; format: cell-based; settings: for IC50: HepG2 tumor cells, 24 h incubation, resazurin, read-out: IC50 ± SD, HepG2; for SI (selectivity index), HepG2: IC50 for MRC-5 cells / IC50 for HepG2 cells
Description: as §1, §2
(§3) The SI of the complexes was calculated as the ratio of the IC50 for healthy MRC-5 cells to the IC50 for tumor cells. […] Substances with SI values >3 are considered promising.

[3] = test system: HeLa cells (cervix adenocarcinoma); test: Cytotoxic analysis (IC50) of adherent cell lines, resazurin: HeLa; format: cell-based; settings: for IC50: HeLa tumor cells, 24 h incubation, resazurin, read-out: IC50 ± SD, HeLa; for SI (selectivity index), HeLa: IC50 for MRC-5 cells / IC50 for HeLa cells
Description: as §1, §2, §3

[4] = test system: MDA-MB-231 cells (breast adenocarcinoma); test: Cytotoxic analysis (IC50) of adherent cell lines, resazurin: MDA-MB-231; format: cell-based; settings: for IC50: MDA-MB-231 tumor cells, 24 h incubation, resazurin, read-out: IC50 ± SD, MDA-MB-231; for SI (selectivity index), MDA-MB-231: IC50 for MRC-5 cells / IC50 for MDA-MB-231 cells
Description: as §1, §2, §3

[5] = test system: K-562 cells (chronic myelogenous leukemia); test: Cytotoxic analysis (IC50) of suspended cells, resazurin: K-562; format: cell-based; settings: for IC50: K-562 suspended tumor cells, 24 h incubation, resazurin, read-out: IC50 ± SD, K-562; for SI (selectivity index), K-562: IC50 for MRC-5 cells / IC50 for K-562 cells
Description: as §1
In these experiments, cells were centrifuged (252× g for 5 min), and the number of cells was counted using a Neubauer chamber after staining non-viable cells with 0.4% trypan blue solution (Sigma-Aldrich®) via the cell exclusion assay. Then, the cell concentration was adjusted to 2 × 10^5 cells/mL in RPMI 1640 medium. Next, 100 μL of the suspension was deposited into each well of a 96-well microplate to a final cell density of […] [35]. The complexes were dissolved in DMSO to an initial concentration of 10,000 μg/mL. Test solutions of the complexes were prepared to obtain concentrations from 500 to 1.95 μg/mL. The diluted solutions were added to the cells, and the cultures were incubated for 24 h. The cytotoxicity of the complexes was determined after incubating the cells in 30 μL of resazurin for approximately 5 h. The measurement was performed using a Synergy H1 microplate reader (BioTek®, Winooski, VT, USA) with excitation and emission filters at wavelengths of 530 and 590 nm, respectively. The assays were performed in three independent experiments.
as §3

[6] = test system: DU 145 cells (prostate carcinoma); test: Cytotoxic analysis (IC50) of adherent cell lines, resazurin: DU 145; format: cell-based; settings: for IC50: DU 145 tumor cells, 24 h incubation, resazurin, read-out: IC50 ± SD, DU 145; for SI (selectivity index), DU 145: IC50 for MRC-5 cells / IC50 for DU 145 cells
Description: as §1, §2, §3

BALB/c mice [7] = test: Quantification of serum AST and ALT enzymatic activity levels; format: in vivo; settings: ANOVA and Dunnett's test
Description: To analyze whether there were any biochemical changes in the liver of the animals, we quantified the serum AST and ALT enzymatic activity levels in mice after administration of the complexes via gavage before sacrificing, as described above. A total of 500 µL of blood was collected via the submandibular vein. The blood samples were placed in collection tubes, centrifuged at 1097.6× g for 15 min to separate the serum, and stored at −70 °C. The samples were analyzed on the day of collection.
Enzymatic activity measurements were performed using biochemical diagnostic kits from Labtest S.A. (Labtest S.A., Lagoa Santa, MG, Brazil).
Statistical analysis was performed using GraphPad Prism Version 1.5 software via ANOVA and Dunnett’s test, and p < 0.05 was established as the significance level.

Artemia salina L. [8] = test: Artemia salina L. toxicity assay; format: in vivo; settings: ratio of LC50 values to cisplatin
Description: To determine toxicity of the Zn^II complexes to brine shrimp, 25 mg of egg (Natal, RN, Brazil) was incubated in a beaker (2000 mL) containing artificial salt water at a temperature ranging from 20 to 30 °C. The artificial salt water consisted of 23 g NaCl, 11 g MgCl2·6H2O, 4 g Na2SO4, 1.3 g CaCl2·H2O, and 0.7 g KCl in 1000 mL distilled water. The pH was adjusted to 9.0 using 5N NaOH to avoid risk of death to the Artemia larvae (nauplii) due to a low pH during incubation.
After 24 hours, 0.6 g of Saccharomyces cerevisiae was added to the beaker per liter of salt water to feed the nauplii; after the eggs were incubated for 48 h, the nauplii were extracted for the experiments.
A 120 µL suspension of 10-15 nauplii was added to each well of a 96-well microplate, including the control wells. The compounds were solubilized in DMSO at 15,000 µg/mL and serially diluted in a separate 96-well microplate. The tested concentrations ranged from 1500 to 5.85 µg/mL. After incubation for 24 h, the plates were examined under a Lupa binocular microscope (X3.0), and the numbers of live nauplii in each well were counted to determine the LC50 [21]. The assays were performed in three independent experiments.

BALB/c mice [9] = test: In vivo acute toxicity assay, single oral dose; settings: single dose 1000 mg/kg body weight via gavage, 14 days, n = 6
Description: Female 16–20-week old BALB/c mice weighing 24–26 g were used after utilizing these animals for the bioavailability experiments. […] The mice were maintained in polycarbonate cages at 23 ± 2 °C, 56% ± 2% humidity at a 12-h light/dark cycle under specific-pathogen-free conditions (in a positive-pressure cabinet), and the animals were provided with food and water ad libitum [36].
The safety profile of the complexes to BALB/c mice was evaluated via acute toxicity assays according to protocols established by the OECD using the classical method to measure the acute toxicity (LD50) of a single oral dose (administered via gavage) of the complexes [26].
Each complex was suspended in a sunflower oil vehicle, and the vehicle was used as a control (control group). The complexes were administered as a single dose at 1000 mg/kg body weight via gavage (n = 6 animals/complex). […] The animals were monitored for 14 days, and behavioral parameters (Hippocratic screening) were evaluated.
At the end of the experiment, the animals were weighed, and blood was collected via the submandibular vein. Subsequently, the animals were euthanized in CO2 chambers, and their organs (heart, lungs, right and left kidneys, spleen and liver) were surgically removed, weighed and macroscopically analyzed. […]

[10] = In vivo oral bioavailability test, plasma metal quantified by ICP-OES / ICP-MS; settings: BALB/c mice, 300 mg/Kg oral gavage
Description: Female 4–8-week old BALB/c mice weighing 15–20 g were purchased from the central animal facilities of Campinas State University (UNICAMP, Campinas, SP, Brazil). The mice were maintained in polycarbonate cages at 23 ± 2 °C, 56% ± 2% humidity at a 12 h light/dark cycle under specific pathogen-free conditions (in a positive-pressure cabinet), and the animals were provided with food and water ad libitum. […] The animals (n = 2 animals/complex) received a dose of 300 mg/Kg body weight via oral gavage. At 20 min, 1 h, 2 h, and 4 h after drug administration, blood was drawn from two animals via the retro-orbital veins, draining the submandibular vein and the face of the mice to the point at which the origins of the jugular vein join so that drops of blood exude from the point of penetration. The plasma was separated and stored at −70 °C for quantification.
The metal ion (Zn) concentration was quantified via ICP-OES using a Thermo Scientific Model 6300 system (Thermo Scientific®, San Diego, CA, USA). Samples (50 µL) were diluted 1:100 with a solution containing 0.01% (v/v) Triton X-100 and 0.5% (v/v) nitric acid. During the experiment, the recovery validation test was performed, and this test produced a result of 94%–104% recovery.
For digestion, 50 µL of plasma sample and 5950 µL of double-distilled 20% (v/v) nitric acid were used. The samples were digested in a microwave (Berghof speedwave D 72800, Goshen, NY, USA), reaching a temperature of 170 °C. During the experiment, the recovery validation test was performed, and this test produced a result of 95%–105% recovery.

[11] = Solubility in solvents and vehicle (qualitative); format: physicochemical
Artemia salina L. [12] = test system: Artemia salina L.; design: method as in Freitas et al. (2011) [25]; settings: ref Freitas et al. (2011) [25]; read-out: LC50 against Artemia salina L.; cited from earlier work
[13] = Homo sapiens, MRC5, normal MRC-5 cells

Row | Molecule | IC50 ([1]; normal MRC-5 cells) | IC50 [2] | IC50 [3] | IC50 [4] | IC50 [5] | IC50 [6] | SI (selectivity index), HepG2 [2] | SI (selectivity index), MDA-MB-231 [4] | SI (selectivity index), DU 145 [6] | IC50 [1, 13] | IC50 ([2]; Homo sapiens) | IC50 ([3]; Homo sapiens) | IC50 ([4]; Homo sapiens) | IC50 ([5]; Homo sapiens, K562) | IC50 ([6]; Homo sapiens) | SI (selectivity index), HeLa [3] | SI (selectivity index), K-562 [5] | further results
1 | N.N.[Cl][Pt][Cl] [Cisplatin, reference compound] | 46.2 ± 4.9 µM | 60.3 ± 15.1 µM | 85 ± 10.1 µM | 143 ± 3.3 µM | 75.4 ± 6 µM | 56.5 ± 6.8 µM |  |  |  |  |  |  |  |  |  |  |  | serum AST and ALT enzymatic activity levels versus control group (BALB/c mice [7]): no significant difference
2 | CC(=NN=C([S-])Nc1ccccc1)c1ccccn1.CC(=NN=C([S-])Nc1ccccc1)c1ccccn1.[Zn+2] [Complex 2, [Zn(atc-Ph)2]] |  |  |  |  |  |  | 3.6 | 2.2 | 0.3 |  |  |  |  |  |  |  |  | fold lower toxicity in Artemia salina L. relative to cisplatin (Artemia salina L. [8]): 5.7 fold; mortality (BALB/c mice [9]): no mortality; maximum plasma concentration (Cmax) [10]: 1191.95 ng/mL; plasma concentration at 20 min ([10]; 20 min, Zn by ICP-OES, relative to control sample): 727.83 ng/mL; plasma concentration at 1 h ([10]; 1 h, Zn by ICP-OES, relative to control sample): 1023.55 ng/mL; plasma concentration at 2 h ([10]; 2 h, Zn by ICP-OES, relative to control sample): 1191.95 ng/mL; plasma concentration at 4 h ([10]; 4 h, Zn by ICP-OES, relative to control sample): 624.70 ng/mL; solubility in organic solvents [11]: reasonably soluble only in dimethyl sulfoxide (DMSO)
3 | CCNC(=S)N/N=C(\C)c1ccccn1 [Hatc-Et] |  |  |  |  |  |  |  |  |  | 9 µM | 553 ± 45 µM | 746 ± 23.2 µM | 904 ± 65.3 µM | 420.3 ± 3.7 µM | 532 ± 12.6 µM |  |  | 
4 | C/C(=N\NC(=S)Nc1ccccc1)c1ccccn1 [Hatc-Ph] |  |  |  |  |  |  | 0.2 | 0.3 | 0.5 | 7.4 µM | 36.3 ± 1.5 µM | 25 ± 0.2 µM | 24.3 ± 5 µM | 11.1 ± 0.6 µM | 15.1 ± 2.1 µM | 0.3 | 0.7 | 
5 | O.O.O.O.O.O.[Cl][Zn][Cl] [ZnCl2·6H2O] | 240 ± 16.8 µM | 698 ± 10.9 µM | 864 ± 14 µM | 475 ± 64.3 µM | 1090 ± 73.8 µM | 383 ± 7.8 µM | 0.3 | 0.5 | 0.6 |  |  |  |  |  |  | 0.3 | 0.2 | 
6 | perchlorate compound of bis(isoniazid) Zn^II hexahydrate |  |  |  |  |  |  |  |  |  |  |  |  |  |  |  |  |  | LC50 (Artemia salina L. [12]): 268 µM
